Experimental data taken from US20070282007A1, “TREATMENT OF PAIN DISORDERS WITH trans 4-(3,4-DICHLOROPHENYL)-1,2,3,4-TETRAHYDRO-1-NAPHTHALENAMINE AND ITS FORMAMIDE” (SEPRACOR INC., priority 2006, published 2007).
Where two headings read alike, the source gives them in different places.

Columns and labels:
B2 = B2 (Homo sapiens, UniProt P30411); test: In vitro radioligand binding assay, B2
[1] = biological target: T1, Norepinephrine (NE) uptake (Rattus norvegicus, UniProt Q63380); test: Functional uptake of radiolabeled NE into synaptosomes from rat hypothalamus; format: biochemical
T1 construct: from tissue; host or cells: synaptosomes from rat hypothalamus
T1 sequence (Q63380 1-617): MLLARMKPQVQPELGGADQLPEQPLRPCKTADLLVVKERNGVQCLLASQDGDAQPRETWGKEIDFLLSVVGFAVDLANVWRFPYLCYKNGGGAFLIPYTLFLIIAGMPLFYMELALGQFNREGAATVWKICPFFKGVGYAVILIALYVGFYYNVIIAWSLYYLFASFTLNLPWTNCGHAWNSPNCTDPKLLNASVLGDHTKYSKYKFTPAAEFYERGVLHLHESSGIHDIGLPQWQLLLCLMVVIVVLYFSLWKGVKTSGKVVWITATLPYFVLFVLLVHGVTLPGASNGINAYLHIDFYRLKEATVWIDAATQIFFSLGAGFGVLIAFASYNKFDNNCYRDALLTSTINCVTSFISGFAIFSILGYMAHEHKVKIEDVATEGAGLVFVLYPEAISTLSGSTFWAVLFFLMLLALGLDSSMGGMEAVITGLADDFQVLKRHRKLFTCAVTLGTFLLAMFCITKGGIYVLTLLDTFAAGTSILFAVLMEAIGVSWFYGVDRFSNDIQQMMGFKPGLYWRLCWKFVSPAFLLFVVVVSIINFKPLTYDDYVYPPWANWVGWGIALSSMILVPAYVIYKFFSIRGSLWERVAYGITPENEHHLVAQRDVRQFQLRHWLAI
Method: The 5-HT and NE assays were performed essentially as outlined in Perovic S. & Müller W. E. G., Arzneim.-Forsch.

5-HT1A = biological target: T2, 5-HT1A (Homo sapiens, UniProt P08908); test: In vitro radioligand binding assay, 5-HT1A
T2 sequence (P08908 1-422): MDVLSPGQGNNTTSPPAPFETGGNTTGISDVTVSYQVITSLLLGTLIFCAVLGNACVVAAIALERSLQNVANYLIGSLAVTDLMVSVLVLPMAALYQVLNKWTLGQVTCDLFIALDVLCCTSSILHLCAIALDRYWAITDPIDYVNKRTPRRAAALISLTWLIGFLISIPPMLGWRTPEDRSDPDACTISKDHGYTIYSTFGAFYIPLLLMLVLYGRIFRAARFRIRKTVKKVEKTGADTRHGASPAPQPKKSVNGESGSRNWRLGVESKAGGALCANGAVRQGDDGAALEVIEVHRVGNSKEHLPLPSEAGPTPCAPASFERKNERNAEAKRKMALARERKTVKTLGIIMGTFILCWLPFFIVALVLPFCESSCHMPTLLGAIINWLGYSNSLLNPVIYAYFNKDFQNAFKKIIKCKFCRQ

M5 = biological target: T3, M5 (Homo sapiens, UniProt P08912); test: In vitro radioligand binding assay, M5
T3 sequence (P08912 1-532): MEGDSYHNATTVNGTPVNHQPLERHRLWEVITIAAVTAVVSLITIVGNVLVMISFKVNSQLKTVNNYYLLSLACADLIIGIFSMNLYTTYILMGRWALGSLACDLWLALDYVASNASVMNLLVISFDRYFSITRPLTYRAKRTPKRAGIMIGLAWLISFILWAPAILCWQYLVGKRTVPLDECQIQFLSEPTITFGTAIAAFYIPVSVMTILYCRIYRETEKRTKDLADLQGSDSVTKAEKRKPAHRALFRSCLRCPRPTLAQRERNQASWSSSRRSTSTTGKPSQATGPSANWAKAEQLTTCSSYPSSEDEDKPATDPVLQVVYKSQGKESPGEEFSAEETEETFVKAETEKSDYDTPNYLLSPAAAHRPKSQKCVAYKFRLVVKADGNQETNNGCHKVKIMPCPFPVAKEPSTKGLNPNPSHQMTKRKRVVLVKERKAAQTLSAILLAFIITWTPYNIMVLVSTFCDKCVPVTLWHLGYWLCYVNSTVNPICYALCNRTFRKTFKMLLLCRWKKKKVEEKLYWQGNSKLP

Na^+ Channel Site 2 = test: In vitro radioligand binding assay, Na+ channel site 2
H2 = H2 (Homo sapiens, UniProt P25021); test: In vitro radioligand binding assay, H2
H2, sequence (P25021 whole entry): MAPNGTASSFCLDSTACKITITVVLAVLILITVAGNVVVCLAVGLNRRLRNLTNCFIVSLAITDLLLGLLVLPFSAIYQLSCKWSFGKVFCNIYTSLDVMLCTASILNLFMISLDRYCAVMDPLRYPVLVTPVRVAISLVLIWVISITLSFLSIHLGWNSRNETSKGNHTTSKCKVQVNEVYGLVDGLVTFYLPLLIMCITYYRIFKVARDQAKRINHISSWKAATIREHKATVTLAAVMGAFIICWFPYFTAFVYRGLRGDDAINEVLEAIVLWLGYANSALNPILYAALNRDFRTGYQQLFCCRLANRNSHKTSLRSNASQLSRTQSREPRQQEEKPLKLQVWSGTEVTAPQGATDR

[2] = biological target: Ca^2+ Channel Verapamil Site; test: In vitro radioligand binding assay, Ca2+ channel verapamil site
Rat SNL Model [3] = test: SNL model of neuropathic pain, mechanical hyperalgesia testing; format: in vivo
Method: (§1) The animals were anesthetized with isoflurane, the left L5 transverse process was removed, and the L5 and L6 spinal nerves were tightly ligated with 6-0 silk suture. The wound was then closed with internal sutures and external staples. Wound clips were removed 10-11 days following surgery.
Mechanical hyperalgesia testing: Baseline, post-injury and post-treatment values for […] mechanical sensitivity were evaluated using a Paw Pressure Analgesymeter (7200, Ugo Basile, Comerio, Italy) which generates a linearly increasing mechanical force. The mechanical nociceptive stimulus was applied to the plantar surface of the hind paws by a dome-shaped plastic tip placed between the 3rd and 4th metatarsus. […] Mechanical thresholds were defined as the force in grams at the first pain behavior, which includes paw withdrawal, struggle and/or vocalization. Paw pressure test was performed on each hind paw for each animal. The mean and standard error of the mean (SEM) were determined for each paw, in each treatment group. Mechanical hyperalgesia was evaluated 24 days post-surgery.
(§2) Ten rats were studied per group and the tests were performed blind. (1R,4S)-4-(3,4-dichlorophenyl)-1,2,3,4-tetrahydro-1-naphthalenamine (P) was evaluated at 3 doses (5, 10 and 15 mg/kg), administered orally and compared with a vehicle control group. Gabapentin (100 mg/kg) and duloxetine (30 mg/kg) administered orally under the same experimental conditions, were used as comparator substances. Mechanical allodynia and hyperalgesia testing were conducted at baseline and 1, 2 and 4 hours after test article administration.

rats [4] = test: Formalin test, second test with Automated Nociception Analyzer; format: in vivo, rat; conditions: automated detection; for Number of Flinches, Acute Phase (Mean ± SEM): 0-10 minutes after formalin; for Number of Flinches, Late Phase (Mean ± SEM): 10-60 minutes after formalin
Method: In a second test, flinching behaviors were measured for 90 minutes after formalin injection using an automated detection system. […] This device used a magnetic detection system to measure paw movements, called “flinches”. Small metal bands were attached to the left hind paw of rats just before placement into individual circular test chambers 30 minutes prior to formalin injection. […] In addition to duloxetine, morphine (6 mg/kg, subcutaneously) was used as a comparator substance. Animals were treated with morphine 30 minutes prior to the formalin injection. To initiate the experiment, the rats were injected with formalin subcutaneously on the dorsal surface of the left hind paw and placed in the test chambers. The instrument subsequently recorded rapid foot movements counted in one minute epochs.

rats [5] = test: Formalin paw test in the rat (late phase), flinches counted; format: in vivo
Method: Rats were given an intraplantar injection of 5% formalin (50 μl) into the posterior left paw. […] The number of flinches was counted for 15 minutes, beginning 20 minutes after injection of formalin. Eight rats were studied per group. The test was performed blind. […] Data were analyzed by comparing treated groups with vehicle control using unpaired Mann-Whitney U tests.

Rat SNL Model [6] = test: SNL model of neuropathic pain, mechanical allodynia testing; format: in vivo
Method: as §1
Animals were placed on a perforated metallic platform and allowed to acclimate to their surroundings for a minimum of 30 minutes before testing. The mean and standard error of the mean (SEM) were determined for each animal in each treatment group. Since this stimulus is normally not considered painful, significant injury-induced increases in responsiveness in this test are interpreted as a measure of mechanical allodynia. Mechanical allodynia was evaluated 14 days post-surgery.
as §2

Dopamine (DA) uptake = Dopamine (DA) uptake (Rattus norvegicus, UniProt P23977); test: biochemical
Dopamine (DA) uptake, sequence (P23977 whole entry): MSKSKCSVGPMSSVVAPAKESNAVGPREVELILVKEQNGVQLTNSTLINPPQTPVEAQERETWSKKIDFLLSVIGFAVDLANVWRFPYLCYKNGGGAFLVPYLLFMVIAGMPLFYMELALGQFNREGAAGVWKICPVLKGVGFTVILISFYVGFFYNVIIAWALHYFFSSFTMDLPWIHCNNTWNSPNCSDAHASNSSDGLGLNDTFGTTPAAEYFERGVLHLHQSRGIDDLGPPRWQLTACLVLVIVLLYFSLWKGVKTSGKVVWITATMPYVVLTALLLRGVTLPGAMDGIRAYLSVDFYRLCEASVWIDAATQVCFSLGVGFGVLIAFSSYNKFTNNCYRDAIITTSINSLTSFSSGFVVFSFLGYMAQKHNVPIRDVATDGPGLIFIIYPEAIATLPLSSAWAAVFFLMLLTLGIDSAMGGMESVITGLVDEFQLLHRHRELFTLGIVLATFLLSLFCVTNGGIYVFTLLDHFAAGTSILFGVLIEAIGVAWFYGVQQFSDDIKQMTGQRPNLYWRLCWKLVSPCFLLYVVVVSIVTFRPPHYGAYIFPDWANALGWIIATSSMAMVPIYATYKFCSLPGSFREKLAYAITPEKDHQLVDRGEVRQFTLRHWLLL

[7] = biological target: T4, recombinant human Dopamine (DA) transporter (Homo sapiens, UniProt Q01959); test: Functional uptake of DA into cells expressing recombinant human transporters; format: cell-based; conditions: read-out: IC50 inhibition of functional uptake in human transporters, Dopamine (DA)
T4 construct: expressed in transfected cells
T4 sequence (Q01959 whole entry): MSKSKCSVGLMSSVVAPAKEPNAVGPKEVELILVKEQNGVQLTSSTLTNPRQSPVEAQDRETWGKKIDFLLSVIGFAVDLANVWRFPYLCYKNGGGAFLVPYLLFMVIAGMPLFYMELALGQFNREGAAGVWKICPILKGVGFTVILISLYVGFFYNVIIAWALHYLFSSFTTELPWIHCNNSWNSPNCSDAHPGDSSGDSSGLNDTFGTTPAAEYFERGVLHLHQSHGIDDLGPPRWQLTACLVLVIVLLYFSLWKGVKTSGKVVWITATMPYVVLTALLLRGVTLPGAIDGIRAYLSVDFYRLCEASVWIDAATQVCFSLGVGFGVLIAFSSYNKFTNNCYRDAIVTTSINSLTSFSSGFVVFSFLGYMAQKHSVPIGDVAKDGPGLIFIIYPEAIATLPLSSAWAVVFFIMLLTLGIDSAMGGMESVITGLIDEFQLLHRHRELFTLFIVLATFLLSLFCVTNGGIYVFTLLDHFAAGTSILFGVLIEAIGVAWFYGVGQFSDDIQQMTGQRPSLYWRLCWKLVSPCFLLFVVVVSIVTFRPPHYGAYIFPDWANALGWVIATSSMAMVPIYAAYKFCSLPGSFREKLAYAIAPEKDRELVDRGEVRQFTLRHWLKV

[8] = biological target: T5, recombinant human Norepinephrine (NE) transporter (Homo sapiens, UniProt P23975); test: Functional uptake of NE into cells expressing recombinant human transporters; format: cell-based; conditions: read-out: IC50 inhibition of functional uptake in human transporters, Norepinephrine (NE)
T5 construct: expressed in transfected cells
T5 sequence (P23975 whole entry): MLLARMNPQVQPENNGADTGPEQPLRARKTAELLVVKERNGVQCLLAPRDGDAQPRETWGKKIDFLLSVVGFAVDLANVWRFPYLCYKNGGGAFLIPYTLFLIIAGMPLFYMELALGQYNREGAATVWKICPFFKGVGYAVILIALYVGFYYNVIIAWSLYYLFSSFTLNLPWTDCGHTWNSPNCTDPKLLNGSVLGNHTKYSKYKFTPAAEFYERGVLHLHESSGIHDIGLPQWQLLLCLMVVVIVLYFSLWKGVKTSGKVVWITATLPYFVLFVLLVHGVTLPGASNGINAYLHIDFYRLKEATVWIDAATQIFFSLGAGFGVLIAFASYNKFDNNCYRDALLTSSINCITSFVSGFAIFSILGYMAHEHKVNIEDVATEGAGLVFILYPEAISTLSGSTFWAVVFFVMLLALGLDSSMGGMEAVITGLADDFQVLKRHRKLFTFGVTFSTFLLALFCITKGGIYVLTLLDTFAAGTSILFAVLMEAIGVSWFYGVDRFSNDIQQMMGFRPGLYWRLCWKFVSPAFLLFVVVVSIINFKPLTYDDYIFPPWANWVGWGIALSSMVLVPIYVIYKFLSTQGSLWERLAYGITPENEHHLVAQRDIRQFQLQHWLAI

5-HT1B = 5-HT1B (Homo sapiens, UniProt P28222); test: In vitro radioligand binding assay, 5-HT1B
5-HT1B, sequence (P28222 whole entry, species assumed): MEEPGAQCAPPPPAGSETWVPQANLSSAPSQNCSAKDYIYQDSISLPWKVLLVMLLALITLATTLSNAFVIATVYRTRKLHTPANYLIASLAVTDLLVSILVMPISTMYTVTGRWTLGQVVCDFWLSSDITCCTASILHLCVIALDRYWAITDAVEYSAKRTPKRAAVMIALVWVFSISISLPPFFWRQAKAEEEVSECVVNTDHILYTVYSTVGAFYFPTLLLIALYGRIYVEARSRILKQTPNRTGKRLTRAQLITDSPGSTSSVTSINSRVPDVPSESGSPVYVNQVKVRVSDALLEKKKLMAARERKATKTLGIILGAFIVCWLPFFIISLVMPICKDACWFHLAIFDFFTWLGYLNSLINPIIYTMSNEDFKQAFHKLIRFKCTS

M3 receptor = biological target: T6, M3 receptor (Cavia porcellus, UniProt H0W1Z3); test: Carbachol-induced contraction of the isolated Guinea pig ileum; conditions: reference antagonist
T6 construct: from tissue; host or cells: isolated guinea pig ileum
T6 sequence (H0W1Z3 1-590): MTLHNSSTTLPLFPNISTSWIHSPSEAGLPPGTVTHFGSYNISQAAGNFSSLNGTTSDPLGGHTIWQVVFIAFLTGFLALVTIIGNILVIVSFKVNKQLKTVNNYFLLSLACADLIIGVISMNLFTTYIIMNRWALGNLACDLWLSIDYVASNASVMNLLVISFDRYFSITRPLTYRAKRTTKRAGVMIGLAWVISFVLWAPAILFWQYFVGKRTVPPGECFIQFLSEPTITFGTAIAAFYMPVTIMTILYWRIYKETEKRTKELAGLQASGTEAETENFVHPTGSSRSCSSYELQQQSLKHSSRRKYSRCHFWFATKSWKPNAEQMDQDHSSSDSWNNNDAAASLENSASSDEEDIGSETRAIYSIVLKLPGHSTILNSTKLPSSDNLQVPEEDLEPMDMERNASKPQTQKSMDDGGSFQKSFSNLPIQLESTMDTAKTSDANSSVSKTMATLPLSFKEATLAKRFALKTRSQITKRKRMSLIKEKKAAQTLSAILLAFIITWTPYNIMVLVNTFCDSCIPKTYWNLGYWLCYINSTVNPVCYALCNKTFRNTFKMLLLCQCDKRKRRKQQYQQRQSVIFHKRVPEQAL

[9] = 30 mg/kg p.o. 60 min before the test
[10] = 128 mg/kg p.o. 60 min before the test

B2, sequence (P30411 whole entry): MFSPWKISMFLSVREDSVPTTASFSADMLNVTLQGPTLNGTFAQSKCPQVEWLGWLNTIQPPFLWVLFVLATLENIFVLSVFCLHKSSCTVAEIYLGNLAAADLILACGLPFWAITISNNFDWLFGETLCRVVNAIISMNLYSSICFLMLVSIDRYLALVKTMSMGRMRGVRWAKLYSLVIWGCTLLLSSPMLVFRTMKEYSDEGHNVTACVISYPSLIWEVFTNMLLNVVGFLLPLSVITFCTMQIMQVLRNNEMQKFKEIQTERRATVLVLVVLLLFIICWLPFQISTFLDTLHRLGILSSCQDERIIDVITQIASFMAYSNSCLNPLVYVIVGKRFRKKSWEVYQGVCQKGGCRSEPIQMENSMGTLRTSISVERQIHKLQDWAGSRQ

CN(C)CCCC1(c2ccc(F)cc2)OCc2cc(C#N)ccc21 (stereo not shown) [Citalopram]
Ki (B2): > 100 µM | IC50 [1]: 7900 nM | Ki (5-HT1A): 15 µM | Ki (M5; read-out: Ki, M5): 29 µM

COc1ccc(C(CN(C)C)C2(O)CCCCC2)cc1 (stereo not shown) [Venlafaxine]
Ki (Na^+ Channel Site 2): 12 µM | Ki (H2): 89 µM | Ki [2]: 4800 nM | Ki (M5): > 100 µM

CNCC[C@H](Oc1cccc2ccccc12)c1cccs1 [Duloxetine, reference compound]
Mechanical Hyperalgesia, Paw Pressure Threshold (Mean ± SEM) (Rat SNL Model [3]; 30 mg/kg PO, 0 h (Baseline)): 153 ± 9 g | Mechanical Hyperalgesia, Paw Pressure Threshold (Mean ± SEM) (Rat SNL Model [3]; 30 mg/kg PO, 1 h): 306 ± 30 g | Mechanical Hyperalgesia, Paw Pressure Threshold (Mean ± SEM) (Rat SNL Model [3]; 30 mg/kg PO, 2 h): 345 ± 22 g | Mechanical Hyperalgesia, Paw Pressure Threshold (Mean ± SEM) (Rat SNL Model [3]; 30 mg/kg PO, 4 h): 330 ± 25 g | Number of Flinches, Acute Phase (Mean ± SEM) (rats [4]; 30 mg/kg PO): 168 ± 24 | Number of Flinches, Late Phase (Mean ± SEM) (rats [4]; 30 mg/kg PO): 803 ± 112 | NUMBER OF FLINCHES (20 to 35 min after formalin), mean ± s.e.m. (rats [5]; [9]): 71.4 ± 17.2NS | NUMBER OF FLINCHES, % change from control (rats [5]; [9]): −20% | Mechanical Allodynia, Paw Withdrawal Threshold (Mean ± SEM) (Rat SNL Model [6]; 30 mg/kg PO, 0 h (Baseline)): 2.6 ± 0.2 g | Mechanical Allodynia, Paw Withdrawal Threshold (Mean ± SEM) (Rat SNL Model [6]; 30 mg/kg PO, 1 h): 7.0 ± 0.5 g | Mechanical Allodynia, Paw Withdrawal Threshold (Mean ± SEM) (Rat SNL Model [6]; 30 mg/kg PO, 2 h): 7.9 ± 0.6 g | Mechanical Allodynia, Paw Withdrawal Threshold (Mean ± SEM) (Rat SNL Model [6]; 30 mg/kg PO, 4 h): 8.1 ± 0.6 g

N[C@@H]1CC[C@@H](c2ccc(Cl)c(Cl)c2)c2ccccc21 (racemic) [1:1 mixture of Compounds P & Q, trans-4-(3,4-dichlorophenyl)-1,2,3,4-tetrahydro-1-napthalenamine]
IC50 (Dopamine (DA) uptake): 7.1 nM | IC50 [1]: 8.8 nM

CC(NC(C)(C)C)C(=O)c1cccc(Cl)c1 (stereo not shown) [Bupropion, reference compound]
IC50 (Dopamine (DA) uptake): 294 nM | IC50 [1]: 611 nM

N[C@H]1CC[C@H](c2ccc(Cl)c(Cl)c2)c2ccccc21 [Compound Q, (1S,4R)-trans 4-(3,4-dichlorophenyl)-1,2,3,4-tetrahydro-1-napthalenamine]
IC50 (Dopamine (DA) uptake): 19 nM | IC50 [1]: 35 nM | IC50 [7]: 14.4 nM | IC50 [8]: 16.5 nM

CN1CC[C@]23c4c5ccc(O)c4O[C@H]2[C@@H](O)C=C[C@H]3[C@H]1C5 [Morphine, reference compound]
Number of Flinches, Acute Phase (Mean ± SEM) (rats [4]; 100 mg/kg SC): 36 ± 9 | Number of Flinches, Late Phase (Mean ± SEM) (rats [4]; 100 mg/kg SC): 32 ± 13 | NUMBER OF FLINCHES (20 to 35 min after formalin), mean ± s.e.m. (rats [5]; [10]): 0.0 ± 0.0 | NUMBER OF FLINCHES, % change from control (rats [5]; [10]): −100%

CNCCCN1c2ccccc2CCc2ccccc21 [Desipramine]
Ki (5-HT1B): 2700 nM | Ki (Na^+ Channel Site 2): 0.91 µM | Ki [2]: 310 nM | Ki (M5; read-out: Ki, M5): 0.47 µM

NCC1(CC(=O)O)CCCCC1 [Gabapentin, reference compound]
Mechanical Hyperalgesia, Paw Pressure Threshold (Mean ± SEM) (Rat SNL Model [3]; 100 mg/kg PO, 0 h (Baseline)): 135 ± 20 g | Mechanical Hyperalgesia, Paw Pressure Threshold (Mean ± SEM) (Rat SNL Model [3]; 100 mg/kg PO, 1 h): 219 ± 32 g | Mechanical Hyperalgesia, Paw Pressure Threshold (Mean ± SEM) (Rat SNL Model [3]; 100 mg/kg PO, 2 h): 236 ± 29 g | Mechanical Hyperalgesia, Paw Pressure Threshold (Mean ± SEM) (Rat SNL Model [3]; 100 mg/kg PO, 4 h): 255 ± 29 g | Mechanical Allodynia, Paw Withdrawal Threshold (Mean ± SEM) (Rat SNL Model [6]; 100 mg/kg PO, 0 h (Baseline)): 2.7 ± 0.1 g | Mechanical Allodynia, Paw Withdrawal Threshold (Mean ± SEM) (Rat SNL Model [6]; 100 mg/kg PO, 1 h): 6.6 ± 0.4 g | Mechanical Allodynia, Paw Withdrawal Threshold (Mean ± SEM) (Rat SNL Model [6]; 100 mg/kg PO, 2 h): 9.8 ± 0.5 g | Mechanical Allodynia, Paw Withdrawal Threshold (Mean ± SEM) (Rat SNL Model [6]; 100 mg/kg PO, 4 h): 6.2 ± 0.4 g

C[N+]1(C)CCC(OC(=O)C(c2ccccc2)c2ccccc2)CC1.[I-] [Compound 4-DAMP, 4-DAMP, reference compound]
pA2 (M3 receptor): pA2 = 9.2 | IC50 (M3 receptor; read-out: IC50 for inhibition of carbachol-induced contraction of the Guinea Pig ileum): 33 nM
